Data as given in publication PMC11988454, “Discovery of synthetic small molecules targeting the central regulator of Salmonella pathogenicity” (Science Advances, 2025).

Key:
[1] = target: T1, HilD (Salmonella typhimurium, UniProt P0CL08); assay: nanoDSF thermal stability, HilD; format: binding, S. Typhimurium
T1 construct: His6-SUMO (N, cleaved yes); made in house; host or cells: E. coli C41(DE3)
Method: Thermal stability of proteins was determined using nanoDSF, with runs performed on a Prometheus NT.48 (NanoTemper Technologies). A twofold serial dilution series of C26 was prepared in DMSO. C26 was added to HilD or HilC (5 μM) in SEC buffer, giving a final DMSO concentration of 1% (v/v). Samples were incubated for >20 min at r.t. and centrifuged for 2 min prior to loading of standard capillaries (no. PR-C002). Samples were heated from 20° to 80°C with a temperature gradient of 0.5°C min^−1. Melting temperatures were calculated from changes in the fluorescence ratio (350/330 nm), using PR.Stability Analysis v1.0.3 and a temperature range of 40° to 70°C for curve fitting. Data analysis was performed using Prism 8.4 (GraphPad). The change in HilD melting temperature, Tm, was fitted as a function of ligand concentration, using Eqs. 1 and 2 to yield apparent affinity (Kd,app) values Tm{[L]0}=Tm,lower+(Tm,upper−Tm,lower)*(1−α{[L]0}) (1) α{[L]0}=[P]t−Kd−[L]t+{[P]t+[L]t+Kd,app}^2−{4[P]t[L]t}/2[P]t (2) where [P]t and [L]t are the total protein and ligand concentrations, respectively.

[2] = system: HilC and RtsA; assay: Whole-cell PhilA activation by rhamnose-induced hilC or rtsA in ΔhilD backgrounds; format: cell-based, S. Typhimurium; conditions: C26 100 μM, rhamnose 2 mM
Text: Next, we investigated the selectivity of C26 for HilD using the whole-cell PhilA activation assay. In the absence of HilD, the pool of HilC and RtsA is insufficient to activate the expression of hilA. Therefore, assessing the sensitivity of HilC and RtsA to C26 requires PhilA to be activated in a HilD-independent manner. To create such a condition, we used a plasmid-encoded hilC or rtsA under the control of a rhamnose-inducible promoter.
A whole-cell reporter gene assay was used to quantify HilD transcriptional activity. Strain PhilA-sfGFP and the isogenic ΔhilD PhilA-sfGFP were used for this purpose. Cultures were performed in 1 ml of LB supplemented with 0.3 M NaCl. Compounds at different concentrations or 1% (v/v) DMSO were added to the corresponding tubes. Cultures were incubated at 37°C and 180 rpm for 5 hours. Cells were pelleted, resuspended in 100 μl of PBS, and then transferred into a 96-well black clear-bottom plate (Thermo Fisher Scientific, USA). Fluorescence intensity was measured with a Tecan Spark microplate reader with an excitation wavelength of 485 nm and an emission wavelength of 510 nm. Dose-response curves and IC50 values were calculated using CDD Vault.

[3] = target: T1, HilD; assay: SEC-MALS of HilD; set-up: species or system S. Typhimurium
Method: SEC-MALS experiments were performed using a Superdex 75 Increase 10/300 GL column (Cytiva) coupled to a miniDAWN Tristar Laser photometer (Wyatt) and a RI-2031 differential refractometer (JASCO). HilD (100 μM) was incubated with 1% (v/v) of either DMSO or C26 (10 mM dissolved in DMSO) for 20 min at r.t. Fifty microliters of HilD samples was loaded onto the SEC column, equilibrated with SEC buffer, and separated using a flow rate of 0.5 ml min^−1. Data analysis was carried out with the ASTRA v7.3.0.18 software (Wyatt).

T1 sequence (P0CL08 whole entry): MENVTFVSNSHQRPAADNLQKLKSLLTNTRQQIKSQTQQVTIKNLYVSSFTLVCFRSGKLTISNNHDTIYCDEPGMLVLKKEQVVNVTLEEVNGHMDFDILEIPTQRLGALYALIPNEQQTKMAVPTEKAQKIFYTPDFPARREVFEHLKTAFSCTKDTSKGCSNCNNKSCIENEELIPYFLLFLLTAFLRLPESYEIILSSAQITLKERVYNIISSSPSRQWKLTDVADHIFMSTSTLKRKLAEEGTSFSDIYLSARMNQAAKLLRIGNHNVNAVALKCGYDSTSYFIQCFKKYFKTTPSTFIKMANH

**Q.** With `CN(CC(=O)NCc1ccc2c(c1)OCO2)Cc1ccc(Br)s1` [C26, N-(benzo[d][1,3]dioxol-5-ylmethyl)-2-{[(5-bromothiophen-2-yl)methyl](methyl)amino}acetamide] as the compound, how does the Kd [1] read?
**A.** Its Kd is 30.2 µM.

**Q.** What about the “PhilA activation with hilC and/or rtsA as sole activators” value [2] of the same compound?
**A.** The value was “did not lead to a reduction of PhilA activation”.

**Q.** And the “Molecular Mass of HilD, Measured” value ([3]; HilD + C26 100 μM, theoretical dimer 70.4)?
**A.** The value was 69.8 kDa.

**Q.** And the “oligomerization state of HilD” value ([3]; equimolar C26 (100 μM))?
**A.** The value was “no effect on the oligomerization state”.
